Results reported in patent US12023334B2, “Composition including rilpivirine and method for treating tumors or cancer” (APTORUM THERAPEUTICS LIMITED, priority 2019, dated 2024).

Assays:
U87 glioblastoma cells = conditions: Journal of Cancer 9(1):117-128, 2018; cited from earlier work
[1] = system: PC3 prostate cancer cell lines; conditions: animal experiments (Oncogene 24:3923-3931, 2005); cited from earlier work
A-375 melanoma = conditions: animal experiments (Oncogene 24:3923-3931, 2005); cited from earlier work
pancreatic cancer cells = conditions: in vitro (PloS ONE 10(6):e0130277, 2015); cited from earlier work
PANC-1 = assay: EC50 in cancer cell line, rilpivirine alone; assay type: cell-based; conditions: Homo sapiens, Pancreas
CHP-212 = assay: EC50 in cancer cell line, rilpivirine alone; assay type: cell-based; conditions: Homo sapiens, Neuroblastoma
D283Med = assay: EC50 in cancer cell line, rilpivirine alone; assay type: cell-based; conditions: Homo sapiens, D283 Med, Medulloblastoma
HuTu80 = assay: EC50 in cancer cell line, rilpivirine alone; assay type: cell-based; conditions: Homo sapiens, Duodenum
IMR-32 cell line = assay: MTT cell proliferation assay, IMR-32; assay type: cell-based, human
Description: (§1) In the present invention, the IC50 concentrations required to inhibit the activity of IMR-32 cell line and other neuroblastoma cell lines were determined for rilpivirine and other chemotherapeutic agents, and presented on the two-coordinate plot with x- and y-axes, forming the two points (IC50, rilpivirine, 0) and (0, IC50, chemotherapeutic agents). […] Moreover, the concentration or ratios of rilpivirine in combination with chemotherapeutic agents which provide the same inhibition effect are denoted as point (Crilpivirine, 50, Cchemotherapeutic agents, 50) in the same plot.
(§2) The combination index provides a quantitative measurement of the drug-drug interaction at the given effect level. The combination index (CI) is calculated by following equation: […]
(§3) The IMR-32, SK-N-SH, SH-SY5Y and SK-N-BE(2) tumor cell lines were purchased from American Type Culture Collection (ATCC, Manassas, VA). […] The cells were incubated for 72 hours and then cell proliferation was measured by 3-(4,5-dimethyl-2-thiazolyl)-2,5-diphenyl-2H-tetrazolium bromide (MTT) colorimetric assays (Sigma-Aldrich, Inc., St. Louis, MO). […] Absorbance of each well was measured with a spectrophotometer (uQuant SpectroMAX Gemini Dual-scanning microplate spectro, Bio-tek Instrument Inc.) at 550 nm. Growth inhibition was expressed as the ratio of the mean absorbance of treated cells relative to that of the control.

MOLT-4 = assay: EC50 in cancer cell line, rilpivirine alone; assay type: cell-based; conditions: Homo sapiens, Acute lymphoblastic leukemia
SNU-16 = assay: EC50 in cancer cell line, rilpivirine alone; assay type: cell-based; conditions: Homo sapiens, Stomach
ST486 = assay: EC50 in cancer cell line, rilpivirine alone; assay type: cell-based; conditions: Homo sapiens, Burkitt's lymphoma
RKO-AS45-1 = assay: EC50 in cancer cell line, rilpivirine alone; assay type: cell-based; conditions: RKOAS451, Colon
SK-N-BE(2) cell line = assay: MTT cell proliferation assay, SK-N-BE(2); assay type: cell-based
Description: as §1, §2, §3

TF-1 = assay: EC50 in cancer cell line, rilpivirine alone; assay type: cell-based; conditions: Homo sapiens, Erythroleukemia
Caki-2 = assay: EC50 in cancer cell line, rilpivirine alone; assay type: cell-based; conditions: Homo sapiens, Kidney
SH-SY5Y cell line = assay: MTT cell proliferation assay, SH-SY5Y; assay type: cell-based
Description: as §1, §2, §3

PC-3 = assay: EC50 in cancer cell line, rilpivirine alone; assay type: cell-based; conditions: Homo sapiens, Prostate
KU812 = assay: EC50 in cancer cell line, rilpivirine alone; assay type: cell-based; conditions: Homo sapiens, Chronic myelogenous leukemia
SR = assay: EC50 in cancer cell line, rilpivirine alone; assay type: cell-based; conditions: Homo sapiens, Large cell immunoblastic lymphoma
DOHH-2 = assay: EC50 in cancer cell line, rilpivirine alone; assay type: cell-based; conditions: Homo sapiens, B-cell lymphoma
TUR = assay: EC50 in cancer cell line, rilpivirine alone; assay type: cell-based; conditions: Histiocytic lymphoma
SU-DHL-4 = assay: EC50 in cancer cell line, rilpivirine alone; assay type: cell-based; conditions: Homo sapiens, B-cell non-Hodgkin lymphoma
GA-10 = assay: EC50 in cancer cell line, rilpivirine alone; assay type: cell-based; conditions: Homo sapiens, Burkitt's lymphoma
MOLT-16 = assay: EC50 in cancer cell line, rilpivirine alone; assay type: cell-based; conditions: Homo sapiens, Acute lymphoblastic leukemia
DMS273 = assay: EC50 in cancer cell line, rilpivirine alone; assay type: cell-based; conditions: Homo sapiens, DMS-273, SCLC
EM-2 = assay: EC50 in cancer cell line, rilpivirine alone; assay type: cell-based; conditions: Homo sapiens, Chronic myelogenous leukemia
CEM-C2 = assay: EC50 in cancer cell line, rilpivirine alone; assay type: cell-based; conditions: Homo sapiens, Acute lymphoblastic leukemia
HUH-6 = assay: EC50 in cancer cell line, rilpivirine alone; assay type: cell-based; conditions: Homo sapiens, Liver
J-RT3-T3-5 = assay: EC50 in cancer cell line, rilpivirine alone; assay type: cell-based; conditions: Homo sapiens, Acute T-cell leukemia
Thp1 = assay: EC50 in cancer cell line, rilpivirine alone; assay type: cell-based; conditions: Homo sapiens, THP-1, Acute monocytic leukemia
SU-DHL-8 = assay: EC50 in cancer cell line, rilpivirine alone; assay type: cell-based; conditions: Homo sapiens, Large cell lymphoma
JVM-2 = assay: EC50 in cancer cell line, rilpivirine alone; assay type: cell-based; conditions: Homo sapiens, Mantle cell lymphoma
[2] = system: cleaved poly (ADP-ribose) polymerase (PARP) and phosphor-histone H2A.X (p-H2A.X); assay: Expression of cleaved PARP and p-H2A.X in SK-N-BE(2); assay type: cell-based; conditions: increasing rilpivirine 0.12, 0.37, 1.11, 3.3, and 10 μM
647-V = assay: EC50 in cancer cell line, rilpivirine alone; assay type: cell-based; conditions: Homo sapiens, Bladder
MV-4-11 = assay: EC50 in cancer cell line, rilpivirine alone; assay type: cell-based; conditions: Homo sapiens, MV4-11, Biphenotypic B myelomonocytic leukemia
Daudi = assay: EC50 in cancer cell line, rilpivirine alone; assay type: cell-based; conditions: Homo sapiens, Burkitt's lymphoma
EB2 = assay: EC50 in cancer cell line, rilpivirine alone; assay type: cell-based; conditions: Homo sapiens, Burkitt's lymphoma
Jurkat = assay: EC50 in cancer cell line, rilpivirine alone; assay type: cell-based; conditions: Homo sapiens, Acute lymphoblastic leukemia
HMCB = assay: EC50 in cancer cell line, rilpivirine alone; assay type: cell-based; conditions: Homo sapiens, Melanoma
U-87 MG = assay: EC50 in cancer cell line, rilpivirine alone; assay type: cell-based; conditions: Homo sapiens, Glioblastoma/malignant glioma
U-937 = assay: EC50 in cancer cell line, rilpivirine alone; assay type: cell-based; conditions: Homo sapiens, Histiocytic lymphoma
[3] = system: cleaved poly (ADP-ribose) polymerase (PARP) and phosphor-histone H2A.X (p-H2A.X); assay: Expression of cleaved PARP and p-H2A.X in SK-N-SH; assay type: cell-based; conditions: increasing rilpivirine 0.12, 0.37, 1.11, 3.3, and 10 μM
IMR-32 tumor = assay: Xenograft mouse model of neuroblastoma, tumor volume; assay type: in vivo, female BALB/c nude mice; conditions: rilpivirine 400 mg/kg once daily for 21 consecutive days, oral; p<0.05
Description: (§4) This study employed female BALB/c nude mice, aged 4-5 weeks, obtained from BioLasco Taiwan (under Charles River Laboratories Licensee). The animals were housed in individually ventilated cages (IVC, 36 Mini Isolator system). The allocation for 4 animals was 27×20×14 in cm. All the animals were maintained in a hygienic environment under controlled temperature (20-24° C.) and humidity (30%-70%) with 12-hour light/dark cycle. Free access to standard lab diet [MFG (Oriental Yeast Co., Ltd., Japan)] and autoclaved tap water were granted. All aspects of this work including housing, experimentation, and animal disposal were performed in general accordance with the “Guide for the Care and Use of Laboratory Animals: Eighth Edition” (National Academies Press, Washington, D.C., 2011) in our AAALAC-accredited laboratory animal facility. In addition, the animal care and use protocol was reviewed and approved by the IACUC at Pharmacology Discovery Services, Taiwan.
The IMR-32 tumor cell line was purchased from American Type Culture Collection (ATCC CCL-127, neuroblastoma) and cultured in Pharmacology Discovery Services, Taiwan. The cells were cultured in MEM medium containing 10% fetal bovine serum (FBS), 1 mM sodium pyruvate and 1 mM NEAA at 37° C. in 5% CO2 incubator. […] The tumor volume, body weight, mortality, and signs of overt toxicity were monitored and recorded twice weekly for 28 days. […]

MES-SA = assay: EC50 in cancer cell line, rilpivirine alone; assay type: cell-based; conditions: Homo sapiens, Uterine sarcoma
SK-N-AS = assay: EC50 in cancer cell line, rilpivirine alone; assay type: cell-based; conditions: Homo sapiens, Neuroblastoma
IM-9 = assay: EC50 in cancer cell line, rilpivirine alone; assay type: cell-based; conditions: Homo sapiens, Multiple myeloma
[4] = Xenograft mouse model, body weight and signs of overt toxicity; assay type: in vivo, female BALB/c nude mice; conditions: rilpivirine 400 mg/kg once daily for 21 consecutive days, oral
Description: as §4
The IMR-32 tumor cell line was purchased from American Type Culture Collection (ATCC CCL-127, neuroblastoma) and cultured in Pharmacology Discovery Services, Taiwan. The cells were cultured in MEM medium containing 10% fetal bovine serum (FBS), 1 mM sodium pyruvate and 1 mM NEAA at 37° C. in 5% CO2 incubator. Female BALB/c nude mice were used as described in the preceding section. Viable IMR-32 cells (ATCC CCL-127) were subcutaneously (SC) implanted (1×10^7 cells in 1:1 matrigel/complete media mixture at 0.2 mL/mouse) into the right flank of female BALB/c nude mice. Forty-one days post tumor cell implantation (group mean tumor volumes ranging 128 mm^3-130 mm^3), all the animals were randomized into sixteen study groups, each containing eight animals, and dose administrations were initiated (denoted as Day 1). All the experiments were conducted using protocols and conditions approved by the institutional animal care and use committee. The tumor volume, body weight, mortality, and signs of overt toxicity were monitored and recorded twice weekly for 28 days.

T47D = assay: EC50 in cancer cell line, rilpivirine alone; assay type: cell-based; conditions: Homo sapiens, Breast
[5] = system: cleaved poly (ADP-ribose) polymerase (PARP) and phosphor-histone H2A.X (p-H2A.X); assay: Expression of cleaved PARP and p-H2A.X in SH-SY5Y; assay type: cell-based; conditions: increasing rilpivirine 0.12, 0.37, 1.11, 3.3, and 10 μM
BV-173 = assay: EC50 in cancer cell line, rilpivirine alone; assay type: cell-based; conditions: Homo sapiens, B-cell precursor leukemia (CML)
COR-L105 = assay: EC50 in cancer cell line, rilpivirine alone; assay type: cell-based; conditions: Homo sapiens, NSCLC
BxPC-3 = assay: EC50 in cancer cell line, rilpivirine alone; assay type: cell-based; conditions: Homo sapiens, Pancreas
SK-N-SH cell line = assay: MTT cell proliferation assay, SK-N-SH; assay type: cell-based
Description: as §1, §2, §3

[6] = Homo sapiens, rilpivirine alone, 72 hours

Cc1cc(C)c(Nc2ccnc(Nc3ccc(C#N)cc3)n2)c(C)c1 [Dapivirine]
tumor growth of U87 glioblastoma cells (U87 glioblastoma cells): inhibit tumor growth

O=C1Nc2ccc(Cl)cc2[C@@](C#CC2CC2)(C(F)(F)F)O1 [efavirenz]
tumorigenic growth of PC3 prostate cancer cell lines [1]: antagonize tumorigenic growth | tumorigenic growth of A-375 melanoma (A-375 melanoma): antagonize tumorigenic growth | toxic potential against pancreatic cancer cells (pancreatic cancer cells): high toxic potential

Cc1ccnc2c1NC(=O)c1cccnc1N2C1CC1 [nevirapine]
tumorigenic growth of PC3 prostate cancer cell lines [1]: antagonize tumorigenic growth | tumorigenic growth of A-375 melanoma (A-375 melanoma): antagonize tumorigenic growth

Cc1cc(/C=C/C#N)cc(C)c1Nc1ccnc(Nc2ccc(C#N)cc2)n1 [rilpivirine]
EC50 (PANC-1): 8.27 µM | EC50 (CHP-212): 3.26 µM | EC50 (D283Med): 3.54 µM | EC50 (HuTu80): 3.59 µM | growth of neuroblastoma cell line IMR-32 (IMR-32 cell line; 5 μM rilpivirine treatment for 24 hours): significantly inhibited | IC50 (IMR-32 cell line; Homo sapiens, IMR-32, rilpivirine alone, 72 hours): 2.97 µM | EC50 (MOLT-4): 3.75 µM | EC50 (SNU-16): 4.23 µM | EC50 (ST486): 3.76 µM | EC50 (RKO-AS45-1): 4.4 µM | growth of neuroblastoma cell line under rilpivirine treatment (SK-N-BE(2) cell line): successfully inhibited | IC50 (SK-N-BE(2) cell line; Homo sapiens, SKNBE2, rilpivirine alone, 72 hours): 3.37 µM | EC50 (TF-1): 3.76 µM | EC50 (Caki-2): 4.05 µM | growth of neuroblastoma cell line under rilpivirine treatment (SH-SY5Y cell line): successfully inhibited | IC50 (SH-SY5Y cell line; [6]): 3.12 µM | EC50 (PC-3): 6.23 µM | EC50 (KU812): 4.09 µM | EC50 (SR): 3.78 µM | EC50 (DOHH-2): 4.45 µM | EC50 (TUR): 2.08 µM | EC50 (SU-DHL-4): 4.29 µM | EC50 (GA-10): 3.7 µM | EC50 (MOLT-16): 3.38 µM | EC50 (DMS273): 4.96 µM | EC50 (EM-2): 3.96 µM | EC50 (CEM-C2): 4.04 µM | EC50 (HUH-6): 2.41 µM | EC50 (J-RT3-T3-5): 4.04 µM | EC50 (Thp1): 4.29 µM | EC50 (SU-DHL-8): 4.19 µM | EC50 (JVM-2): 2.74 µM | expression of cleaved PARP and p-H2A.X [2]: increased gradually | EC50 (647-V): 12.3 µM | EC50 (MV-4-11): 4.88 µM | EC50 (Daudi): 4.01 µM | EC50 (EB2): 4.81 µM | EC50 (Jurkat): 3.68 µM | EC50 (HMCB): 3.49 µM | EC50 (U-87 MG): 14.4 µM | EC50 (U-937): 3.37 µM | expression of cleaved PARP and p-H2A.X [3]: increased gradually | tumor growth compared to negative control group (vehicle) (IMR-32 tumor): significantly inhibited | EC50 (MES-SA): 4.91 µM | EC50 (SK-N-AS): 4.84 µM | EC50 (IM-9): 4.13 µM | body weight loss [4]: not associated with body weight loss | overt toxicities [4]: no overt toxicities were observed | tolerability [4]: well tolerated | EC50 (T47D): 3.23 µM | expression of cleaved PARP and p-H2A.X [5]: increased gradually | EC50 (BV-173): 3.69 µM | EC50 (COR-L105): 3.11 µM | EC50 (BxPC-3): 11.3 µM | toxic potential against pancreatic cancer cells (pancreatic cancer cells): high toxic potential | growth of neuroblastoma cell line under rilpivirine treatment (SK-N-SH cell line): successfully inhibited | IC50 (SK-N-SH cell line; [6]): 2.75 µM
